Assay results from US20240246977A1, “DEGRADATION OF BRUTON'S TYROSINE KINASE (BTK) BY CONJUGATION OF BTK INHIBITORS WITH E3 LIGASE LIGAND AND METHOD OF USE” (BeiGene Switzerland GmbH, priority 2021, published 2024).

Tests used:
HEK-293 cells = experiment: HEK-293 cytotoxicity detection (CellTiter-Glo); assay type: cell-based; conditions: Homo sapiens, 72 h, 72 h incubation, CellTiter-Glo luminescence, read-out: HEK293
Summary of the method: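 HEK-293 cells exposed 72 h to 8 compounds doses (4-fold dilutions, top stock 5 mM at 500×) in 0.2% DMSO. Viability by CellTiter-Glo luminescence; inhibition normalised to DMSO high control and low control, IC50 from four-parameter curve fit.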

BTK = BTK (Homo sapiens, UniProt Q06187); experiment: BTK cell degradation in TMD-8 cells, HTRF assay; assay type: cell-based; design: endogenous in cells; host or cells: TMD-8 cells; conditions: 6 h treatment, IC50 (DC50) of BTK degradation
Summary of the method: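 TMD-8 cells treated 6 h with 8-dose series (6-fold dilutions, 0.2% DMSO final), then lysed and BTK quantified by HTRF (337/665/620 nm) after overnight antibody incubation at room temperature. Degradation normalized to DMSO high and low controls; DC50 and Dmax from four-parameter fit.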

BTK, sequence (Q06187 whole entry): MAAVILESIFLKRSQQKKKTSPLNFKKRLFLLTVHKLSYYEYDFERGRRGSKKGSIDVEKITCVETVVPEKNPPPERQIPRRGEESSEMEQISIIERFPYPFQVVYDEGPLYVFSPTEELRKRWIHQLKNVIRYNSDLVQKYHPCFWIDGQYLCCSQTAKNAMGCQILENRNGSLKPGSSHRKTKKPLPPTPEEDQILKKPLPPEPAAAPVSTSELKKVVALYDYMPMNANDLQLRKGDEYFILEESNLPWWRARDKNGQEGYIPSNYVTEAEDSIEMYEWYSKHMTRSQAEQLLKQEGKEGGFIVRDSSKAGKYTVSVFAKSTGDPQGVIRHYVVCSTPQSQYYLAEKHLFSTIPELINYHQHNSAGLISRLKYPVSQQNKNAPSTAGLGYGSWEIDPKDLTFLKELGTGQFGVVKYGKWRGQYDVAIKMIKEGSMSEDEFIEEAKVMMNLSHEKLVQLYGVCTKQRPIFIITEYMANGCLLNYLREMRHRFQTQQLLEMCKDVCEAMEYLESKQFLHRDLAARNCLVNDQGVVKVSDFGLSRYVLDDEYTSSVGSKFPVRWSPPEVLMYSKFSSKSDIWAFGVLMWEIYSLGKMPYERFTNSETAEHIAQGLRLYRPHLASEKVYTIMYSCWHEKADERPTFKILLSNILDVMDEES

Work on `Cc1cc(Cl)cc(NC(=O)c2ccc(-c3nn4c(c3C(N)=O)Nc3ccc(N5CCN(CC6CCN(c7ccc(N8CCC(=O)NC8=O)cc7)CC6)CC5)cc3CC4)c(F)c2C)n1` [Example B42, 2-(4-((4-chloro-6-methylpyridin-2-yl)carbamoyl)-2-fluoro-3-methylphenyl)-7-(4-((1-(4-(2,4-dioxotetrahydropyrimidin-1(2H)-yl)phenyl)piperidin-4-yl)methyl)piperazin-1-yl)-9,10-dihydro-4H-benzo[d]pyrazolo[1,5-a][1,3]diazepine-3-carboxamide] yielded an IC50 (HEK-293 cells) of over 10000 nM and a DC50 (BTK) of 3.67 nM.
In the case of `Cc1c(C(=O)Nc2cscn2)ccc(-c2nn3c(c2C(N)=O)Nc2ccc(N4CCN(C5CC(c6ccc(N[C@@H]7CCC(=O)NC7=O)cc6)C5)CC4)cc2CC3)c1F` (stereo partly drawn) [Example B100, (R)-7-(4-(3-(4-((2,6-dioxopiperidin-3-yl)amino)phenyl)cyclobutyl)piperazin-1-yl)-2-(2-fluoro-3-methyl-4-(thiazol-4-ylcarbamoyl)phenyl)-9,10-dihydro-4H-benzo[d]pyrazolo[1,5-a][1,3]diazepine-3-carboxamide], the IC50 (HEK-293 cells) is reported as 34.1 nM and the DC50 (BTK) is reported as 2.14 nM.
In the case of `Cc1cccc(NC(=O)c2ccc(-c3nn4c(c3C(N)=O)Nc3ccc(N5CCN(CC6CCN(c7ccc(N8CCC(=O)N(CC(=O)OC(C)(C)C)C8=O)cc7)CC6)CC5)cc3CC4)c(F)c2C)n1` [Example B76, tert-butyl 2-(3-(4-(4-((4-(3-carbamoyl-2-(2-fluoro-3-methyl-4-((6-methylpyridin-2-yl)carbamoyl)phenyl)-9,10-dihydro-4H-benzo[d]pyrazolo[1,5-a][1,3]diazepin-7-yl)piperazin-1-yl)methyl)piperidin-1-yl)phenyl)-2,6-dioxotetrahydropyrimidin-1(2H)-yl)acetate], the IC50 (HEK-293 cells) is reported as over 10000 nM and the DC50 (BTK) is reported as over 2000 nM.
`NC(=O)c1c(-c2ccc(Oc3ccccc3)cc2)nn2c1Nc1ccc(N3CCN(CC4CCN(c5ccc(N6CCC(=O)NC6=O)cc5)CC4)CC3)cc1CC2` [Example A21, 7-(4-((1-(4-(2,4-dioxotetrahydropyrimidin-1(2H)-yl)phenyl)piperidin-4-yl)methyl)piperazin-1-yl)-2-(4-phenoxyphenyl)-9,10-dihydro-4H-benzo[d]pyrazolo[1,5-a][1,3]diazepine-3-carboxamide] gave an IC50 (HEK-293 cells) of 62.1 nM and a DC50 (BTK) of 1.51 nM.
`NC(=O)c1c(-c2ccc(Oc3ccccc3)cc2)nn2c1Nc1ccc(C(=O)NC3CCN(CC4CCN(c5cc6c(cc5F)C(=O)N(C5CCC(=O)NC5=O)C6=O)CC4)CC3)cc1CC2` (stereo not shown) [Example A10, N^7-(1-((1-(2-(2,6-dioxopiperidin-3-yl)-6-fluoro-1,3-dioxoisoindolin-5-yl)piperidin-4-yl)methyl)piperidin-4-yl)-2-(4-phenoxyphenyl)-9,10-dihydro-4H-benzo[d]pyrazolo[1,5-a][1,3]diazepine-3,7-dicarboxamide] was tested, and the IC50 (HEK-293 cells) was 121 nM and the DC50 (BTK) was 1.75 nM.
Compound `NC(=O)c1c(-c2ccc(Oc3ccccc3)cc2)nn2c1Nc1ccc(C3CCN(CC4CCN(c5ccc(N6CCC(=O)NC6=O)cc5)CC4)CC3)cc1CC2` [Example A30, 7-(1-((1-(4-(2,4-dioxotetrahydropyrimidin-1(2H)-yl)phenyl)piperidin-4-yl)methyl)piperidin-4-yl)-2-(4-phenoxyphenyl)-9,10-dihydro-4H-benzo[d]pyrazolo[1,5-a][1,3]diazepine-3-carboxamide] has an IC50 (HEK-293 cells) of 28.7 nM and a DC50 (BTK) of 1.58 nM.
Work on `Cc1cccc(NC(=O)c2ccc(-c3nn4c(c3C(N)=O)Nc3ccc(N5CCN(CCc6cc(F)c(C7CCC(=O)NC7=O)c(F)c6)CC5)cc3CC4)nc2C)n1` (stereo not shown) [Example B39, 7-(4-(4-(2,6-dioxopiperidin-3-yl)-3,5-difluorophenethyl)piperazin-1-yl)-2-(6-methyl-5-((6-methylpyridin-2-yl)carbamoyl)pyridin-2-yl)-9,10-dihydro-4H-benzo[d]pyrazolo[1,5-a][1,3]diazepine-3-carboxamide] yielded an IC50 (HEK-293 cells) of over 10000 nM and a DC50 (BTK) of 5.66 nM.
In the case of `CC(Nc1cc(C(F)(F)F)ccn1)c1ccc(-c2nn3c(c2C(N)=O)Nc2ccc(N4CCN(CC5CCN(c6ccc(N7CCC(=O)NC7=O)cc6)CC5)CC4)cc2CC3)cc1` (stereo not shown) [Example C15, 7-(4-((1-(4-(2,4-dioxotetrahydropyrimidin-1(2H)-yl)phenyl)piperidin-4-yl)methyl)piperazin-1-yl)-2-(4-(1-((4-(trifluoromethyl)pyridin-2-yl)amino)ethyl)phenyl)-9,10-dihydro-4H-benzo[d]pyrazolo[1,5-a][1,3]diazepine-3-carboxamide], the IC50 (HEK-293 cells) is reported as 8850 nM and the DC50 (BTK) is reported as 14.6 nM.
`Cc1cccc(NC(=O)c2ccc(-c3nn4c(c3C(N)=O)Nc3ccc(N5CCN(CCc6cc(F)c(C7CCC(=O)NC7=O)c(F)c6)CC5)cc3CC4)c(F)c2C)n1` (stereo not shown) [Example B62, 7-(4-(4-(2,6-dioxopiperidin-3-yl)-3,5-difluorophenethyl)piperazin-1-yl)-2-(2-fluoro-3-methyl-4-((6-methylpyridin-2-yl)carbamoyl)phenyl)-9,10-dihydro-4H-benzo[d]pyrazolo[1,5-a] [1,3]diazepine-3-carboxamide] showed an IC50 (HEK-293 cells) of over 10000 nM and a DC50 (BTK) of 1.7 nM.
With `Cc1cccc(N(CC(=O)OC(C)(C)C)C(=O)c2ccc(-c3nn4c(c3C(N)=O)Nc3ccc(N5CCN(CC6CCN(c7ccc(N8CCC(=O)N(CC(=O)OC(C)(C)C)C8=O)cc7)CC6)CC5)cc3CC4)c(F)c2C)n1` [Example B77, tert-butyl 2-(3-(4-(4-((4-(2-(4-((2-(tert-butoxy)-2-oxoethyl)(6-methylpyridin-2-yl)carbamoyl)-2-fluoro-3-methylphenyl)-3-carbamoyl-9,10-dihydro-4H-benzo[d]pyrazolo[1,5-a][1,3]diazepin-7-yl)piperazin-1-yl)methyl)piperidin-1-yl)phenyl)-2,6-dioxotetrahydropyrimidin-1(2H)-yl)acetate] the IC50 (HEK-293 cells) was 38.3 nM and the DC50 (BTK) was over 2000 nM.
`Cc1cccc(NC(=O)c2cnc(-c3nn4c(c3C(N)=O)Nc3ccc(N5CCN(CCc6cc(F)c(C7CCC(=O)NC7=O)c(F)c6)CC5)cc3CC4)cc2C)n1` (stereo not shown) [Example B37, 7-(4-(4-(2,6-dioxopiperidin-3-yl)-3,5-difluorophenethyl)piperazin-1-yl)-2-(4-methyl-5-((6-methylpyridin-2-yl)carbamoyl)pyridin-2-yl)-9,10-dihydro-4H-benzo[d]pyrazolo[1,5-a][1,3]diazepine-3-carboxamide] was tested, and the IC50 (HEK-293 cells) was over 10000 nM and the DC50 (BTK) was 15.2 nM.
`COc1cc(F)ccc1C(=O)NCc1ccc(-c2nn3c(c2C(N)=O)Nc2ccc(N4CCN(CC5CCN(c6ccc(N7CCC(=O)NC7=O)cc6)CC5)CC4)cc2CC3)cc1C` [Example C41, 7-(4-((1-(4-(2,4-dioxotetrahydropyrimidin-1(2H)-yl)phenyl)piperidin-4-yl)methyl)piperazin-1-yl)-2-(4-((4-fluoro-2-methoxybenzamido)methyl)-3-methylphenyl)-9,10-dihydro-4H-benzo[d]pyrazolo[1,5-a][1,3]diazepine-3-carboxamide] showed an IC50 (HEK-293 cells) of over 10000 nM and a DC50 (BTK) of 9.74 nM.
`COc1ccccc1C(=O)NCc1ccc(-c2nn3c(c2C(N)=O)Nc2ccc(N4CCN(CC5CCN(c6ccc(N7CCC(=O)NC7=O)cc6)CC5)CC4)cc2CC3)cc1C(F)(F)F` [Example C45, 7-(4-((1-(4-(2,4-dioxotetrahydropyrimidin-1(2H)-yl)phenyl)piperidin-4-yl)methyl)piperazin-1-yl)-2-(4-((2-methoxybenzamido)methyl)-3-(trifluoromethyl)phenyl)-9,10-dihydro-4H-benzo[d]pyrazolo[1,5-a][1,3]diazepine-3-carboxamide] showed an IC50 (HEK-293 cells) of over 10000 nM and a DC50 (BTK) of 56.4 nM.
For `COc1cc(Oc2ccccc2)ccc1-c1nn2c(c1C(N)=O)Nc1ccc(N3CCN(CC4CCN(c5ccc(N6CCC(=O)NC6=O)cc5)CC4)CC3)cc1CC2` [Example A36, 7-(4-((1-(4-(2,4-dioxotetrahydropyrimidin-1(2H)-yl)phenyl)piperidin-4-yl)methyl)piperazin-1-yl)-2-(2-methoxy-4-phenoxyphenyl)-9,10-dihydro-4H-benzo[d]pyrazolo[1,5-a][1,3]diazepine-3-carboxamide], the IC50 (HEK-293 cells) was 148 nM and the DC50 (BTK) was 3.6 nM.
For `Cc1cccc(NC(=O)c2ccc(-c3nn4c(c3C(N)=O)Nc3ccc(N5CCN(CC6CCN(c7ccc(N8CCC(=O)NC8=O)cc7)CC6)CC5)cc3CC4)nc2C)n1` [Example B38, 7-(4-((1-(4-(2,4-dioxotetrahydropyrimidin-1(2H)-yl)phenyl)piperidin-4-yl)methyl)piperazin-1-yl)-2-(6-methyl-5-((6-methylpyridin-2-yl)carbamoyl)pyridin-2-yl)-9,10-dihydro-4H-benzo[d]pyrazolo[1,5-a][1,3]diazepine-3-carboxamide], the IC50 (HEK-293 cells) was over 10000 nM and the DC50 (BTK) was 4.89 nM.
For `COc1ccccc1C(=O)NCc1ccc(-c2nn3c(c2C(N)=O)Nc2ccc(N4CCN(CC5CCN(c6ccc(N7CCC(=O)NC7=O)cc6)CC5)CC4)cc2CC3)cc1F` [Example C19, 7-(4-((1-(4-(2,4-dioxotetrahydropyrimidin-1(2H)-yl)phenyl)piperidin-4-yl)methyl)piperazin-1-yl)-2-(3-fluoro-4-((2-methoxybenzamido)methyl)phenyl)-9,10-dihydro-4H-benzo[d]pyrazolo[1,5-a][1,3]diazepine-3-carboxamide], the IC50 (HEK-293 cells) was 142 nM and the DC50 (BTK) was 0.848 nM.
Compound `NC(=O)c1c(-c2ccc(Oc3ccccc3)cc2)nn2c1Nc1ccc(N3CCN(CC4CCN(c5ccc6c(c5)C(=O)N(C5CCC(=O)NC5=O)C6=O)CC4)CC3)cc1CC2` (stereo not shown) [Example A6, 7-(4-((1-(2-(2,6-dioxopiperidin-3-yl)-1,3-dioxoisoindolin-5-yl)piperidin-4-yl)methyl)piperazin-1-yl)-2-(4-phenoxyphenyl)-9,10-dihydro-4H-benzo[d]pyrazolo[1,5-a][1,3]diazepine-3-carboxamide] has an IC50 (HEK-293 cells) of 163 nM and a DC50 (BTK) of 3.42 nM.
